Source: publication PMC8789054, “The nucleotide messenger (p)ppGpp is an anti-inducer of the purine synthesis transcription regulator PurR in Bacillus” (Nucleic Acids Research, 2021)
Each block holds one molecule with its values, some of them ahead of it.

Tests used:
PurR Y102A/K207A = target: T1, PurR Y102A/K207A (Bacillus subtilis, UniProt P37551, Y102A/K207A); assay: inhibition of PurR-DNA probe binding by PRPP (Supplementary Figure S15); format: biochemical
T1 sequence (P37551 1-285 Y102A/K207A): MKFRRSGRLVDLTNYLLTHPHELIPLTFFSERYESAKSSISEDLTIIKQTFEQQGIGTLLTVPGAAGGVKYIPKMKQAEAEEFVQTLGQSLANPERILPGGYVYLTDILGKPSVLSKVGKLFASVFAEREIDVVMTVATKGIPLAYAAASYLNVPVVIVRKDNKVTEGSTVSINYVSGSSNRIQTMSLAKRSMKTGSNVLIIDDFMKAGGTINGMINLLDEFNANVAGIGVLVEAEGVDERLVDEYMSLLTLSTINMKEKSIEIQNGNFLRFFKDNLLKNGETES

PurR Y102A/F205A = target: T2, PurR Y102A/F205A (Bacillus subtilis, UniProt P37551, Y102A/F205A); assay: as above; format: biochemical
T2 sequence (P37551 1-285 Y102A/F205A): T1 sequence (P37551 1-285 Y102A/K207A)

PurR [1] = target: T3, PurR (Bacillus subtilis, UniProt P37551); assay: X-ray co-crystal structure ([…] Å); DRaCALA with […]-ppGpp; format: binding
T3 construct: untagged B. subtilis PurR

PurR [2] = target: T3, PurR; assay: DRaCALA with […]-pppGpp; format: binding
[3] = target: the molecule itself; assay: crystal structure; untagged PurR at 20 mg/ml with 1 mM ppGpp, hanging drop vapor diffusion, 0.1 M MES pH 6.5, 18% PEG 1500, room temperature; space group P1, three PurR dimers in the asymmetric unit; 2.45 Å

Molecule: O=P(O)(O)OC[C@H]1O[C@H](OP(=O)(O)OP(=O)(O)O)[C@H](O)[C@@H]1O [PRPP]
- inhibition of PurR-DNA probe binding by PRPP (Supplementary Figure S15) (PurR Y102A/K207A): yet still bind to DNA probes and their binding to DNA is still inhibited by PRPP
- inhibition of PurR-DNA probe binding by PRPP (Supplementary Figure S15) (PurR Y102A/F205A): yet still bind to DNA probes and their binding to DNA is still inhibited by PRPP

Molecule: Nc1nc2c(ncn2[C@@H]2O[C@H](COP(=O)(O)OP(=O)(O)O)[C@@H](OP(=O)(O)OP(=O)(O)O)[C@H]2O)c(=O)[nH]1 [ppGpp]
- Kd (PurR [1]): ~4.4 µM

- Kd (PurR [2]): ~4.4 µM
Molecule: Nc1nc2c(ncn2[C@@H]2O[C@H](COP(=O)(O)OP(=O)(O)OP(=O)(O)O)[C@@H](OP(=O)(O)OP(=O)(O)O)[C@H]2O)c(=O)[nH]1 [pppGpp]

B1: Bacillus subtilis purine synthesis transcription regulator PurR (untagged) (natural protein, B. subtilis)
chain: T1 sequence (P37551 1-285 Y102A/K207A)
notes: PurR, purine synthesis transcription regulator of Bacillus subtilis; Crystallised with 1 mM ppGpp; three dimers in the asymmetric unit; also called B. subtilis PurR; purine repressor PurR; source: E. coli BL21 T7 Express lacIq, purified (HisTrap FF, TEV cleavage, second HisTrap FF, Sephacryl S-200 gel filtration)
- binding result [3]: binds
